Laboratory results as given in patent US6486202B1, “Inhibitors of isoprenyl transferase” (Eisai Company, Limited, priority 2001, dated 2002).

Experiments:
FTase = FTase (Homo sapiens, UniProt P49354+P49356); test: FTase prenylation assay (partially purified FTase, recombinant H-ras, [3H] farnesyl pyrophosphate); type: biochemical; settings: 3 μM recombinant H-ras, 440 nM [3H] FPP, 15 minutes at 37° C.
GGTase = GGTase (Homo sapiens, UniProt P49354+P53609); test: GGTase prenylation assay (partially purified GGTase, recombinant H-ras 61 L CAIL, [3H] geranylgeranyl diphosphate); type: biochemical; settings: 5 μM recombinant H-ras (61 L, CAIL), 1 μM [3H] geranylgeranyl diphosphate
[1] = system: H-ras farnesylation in H-ras (61 L) transformed NIH3T3 fibroblasts; test: Inhibition of H-ras farnesylation in whole cells (Western blot); type: cell-based; settings: treated 24 hours
Experimental: The ability of compounds of the invention to inhibit H-ras farnesylation and rapl geranylgeranylation in whole cells was determined. H-ras (61 L) transformed NIH3T3 fibroblasts were generously provided by C. Der, Univ. N. Carolina. These fibroblasts were treated for 24 hours with 50 μM lovastatin (control) or the indicated concentrations of inhibitor. The cells were lysed in 1% NP-40, 5mM Tris-HCl (pH 8.0), 5mM EDTA, 0.1mM N-tosyl-L-phenylalanine chloromethyl ketone, 0.1mM N-tosyl-L-lysine chloromethyl ketone, and 1 mM phenylmethylsulfonyl fluoride. The lysate was centrifuged (15000×g, 5 minutes.) and the supernatant was used as a cell extract. Total protein was separated by SDS-PAGE in 15% acrylamnide gel. After transfer to IMMOBILON P™ membrane (Millipore), the blots were probed with LA069 mouse monoclonal antibody to H-ras (Quality Biotech), or rabbit polyclonal antibody to rap1/Krev (Santa Cruz Biotechnology). All Western blots were developed using ECL chemiluminescent reagents (Amersham).

[2] = system: anchorage-independent cell growth; test: Soft agar, anchorage-independent cell growth (Table 2); type: cell-based
MIA PaCa-2 cells [3] = test: Anchorage-independent growth of tumor cells in culture, compound 10 and paclitaxel; type: cell-based; settings: for number of colonies: 17 day incubation
Experimental: 4×10^3MIA PaCa-2 cells (ATCC CRL1420) were seeded on 24-well culture plates in 0.2 mL of 0.33 Noble agar in 10% fetal calf serum/RPMI1640 medium over 0.4 mL of 0.66% Noble agar in the same culture medium. The top agar layer was overlayed with 0.2 mL of 0.66% Noble agar in culture medium. The upper agar was covered with 0.2 mL of culture medium containing the indicated concentration of paclitaxel and the indicated concentration of compound 10.
At the end of a 17 day incubation, 0.2 mL of 3.3 mg/mL 3-[4,5-dimethylthiazol-2-yl]-2,5-diphenyltetrazolium bromide in phosphate buffered saline was added and incubated for 1 hour. The number of stained colonies was analyzed with an image analyzer computer program.

MIA PaCa-2 cells [4] = test: In vivo tumor model, subcutaneous MIA PaCa-2 tumors in nude mice; design: species or system nude mice (BALB/c-nu/nu)
Experimental: 5×10^6 MIA PaCa-2 cells in Hank's balanced salt solution were injected subcutaneously into the flanks of 6 to 8 week old female nude mice (BALB/c-nu/nu) at day 1. […] Compound 10 and paclitaxel were administered intravenously once a day for 5 days from day 6. Tumor volume was measured on the days indicated. Tumor volume was calculated according to the equation: tumor volume (mm^3)=(length×width^2)/2. The results are shown in FIG. 1, where the bars indicated standard deviation. The n value for the assays is 5.

[5] = paclitaxel alone 6.25 mg/kg/day intravenously once a day for 5 days from day 6

Compound: CCc1ccc(CC=CC(N)CS)cc1C(=O)NC(CCSC)C(=O)OC (stereo not shown)
- IC50 (FTase): 560 nM
- IC50 (GGTase): 1840 nM

Compound: CSCCC(NC(=O)c1cc(CC=CC(N)CS)ccc1C(C)C)C(=O)O (stereo not shown)
- IC50 (FTase): 23 nM
- IC50 (GGTase): 450 nM

Compound: CSCC[C@H](NC(=O)c1cc(C/C=C/C(N)CS)ccc1C)C(=O)O (stereo partly shown)
- IC50 [1]: 4000 nM
- IC50 [2]: 9000 nM

Compound: CCc1ccc(C/C=C/C(N)CS)cc1C(=O)N[C@@H](CCSC)C(=O)O (stereo partly shown)
- IC50 [1]: 360 nM
- IC50 [2]: 950 nM

Compound: COC(=O)[C@H](CCSC)NC(=O)c1cc(C/C=C/C(N)CS)ccc1C (stereo partly shown)
- IC50 [1]: 120 nM
- IC50 [2]: 75 nM

Compound: COC(=O)[C@H](CCSC)NC(=O)c1cc(CCC[C@@H](N)CS)ccc1C(C)C.Cl [Compound 10]
- number of colonies (MIA PaCa-2 cells [3]; compound 10 3.13 nM + paclitaxel 0.63 nM): 255
- number of colonies (MIA PaCa-2 cells [3]; compound 10 3.13 nM + paclitaxel 1.25 nM): 204
- number of colonies (MIA PaCa-2 cells [3]; compound 10 3.13 nM + paclitaxel 2.5 nM): 64
- number of colonies (MIA PaCa-2 cells [3]; compound 10 3.13 nM + paclitaxel 5 nM): 8
- number of colonies (MIA PaCa-2 cells [3]; compound 10 3.13 nM, paclitaxel 0 nM): 271
- number of colonies (MIA PaCa-2 cells [3]; compound 10 6.25 nM + paclitaxel 0.63 nM): 214
- number of colonies (MIA PaCa-2 cells [3]; compound 10 6.25 nM + paclitaxel 1.25 nM): 168
- number of colonies (MIA PaCa-2 cells [3]; compound 10 6.25 nM + paclitaxel 2.5 nM): 36
- number of colonies (MIA PaCa-2 cells [3]; compound 10 6.25 nM + paclitaxel 5 nM): 4
- number of colonies (MIA PaCa-2 cells [3]; compound 10 6.25 nM, paclitaxel 0 nM): 210
- number of colonies (MIA PaCa-2 cells [3]; compound 10 12.5 nM + paclitaxel 0.63 nM): 203
- number of colonies (MIA PaCa-2 cells [3]; compound 10 12.5 nM + paclitaxel 1.25 nM): 148
- number of colonies (MIA PaCa-2 cells [3]; compound 10 12.5 nM + paclitaxel 2.5 nM): 22
- number of colonies (MIA PaCa-2 cells [3]; compound 10 12.5 nM + paclitaxel 5 nM): 1
- number of colonies (MIA PaCa-2 cells [3]; compound 10 12.5 nM, paclitaxel 0 nM): 189
- number of colonies (MIA PaCa-2 cells [3]; compound 10 25 nM + paclitaxel 0.63 nM): 173
- number of colonies (MIA PaCa-2 cells [3]; compound 10 25 nM + paclitaxel 1.25 nM): 124
- number of colonies (MIA PaCa-2 cells [3]; compound 10 25 nM + paclitaxel 2.5 nM): 16
- number of colonies (MIA PaCa-2 cells [3]; compound 10 25 nM + paclitaxel 5 nM): 1
- number of colonies (MIA PaCa-2 cells [3]; compound 10 25 nM, paclitaxel 0 nM): 161
- number of colonies (MIA PaCa-2 cells [3]; compound 10 50 nM + paclitaxel 0.63 nM): 119
- number of colonies (MIA PaCa-2 cells [3]; compound 10 50 nM + paclitaxel 1.25 nM): 74
- number of colonies (MIA PaCa-2 cells [3]; compound 10 50 nM + paclitaxel 2.5 nM): 0
- number of colonies (MIA PaCa-2 cells [3]; compound 10 50 nM + paclitaxel 5 nM): 0
- number of colonies (MIA PaCa-2 cells [3]; compound 10 50 nM, paclitaxel 0 nM): 97
- number of colonies (MIA PaCa-2 cells [3]; compound 10 100 nM + paclitaxel 0.63 nM): 72
- number of colonies (MIA PaCa-2 cells [3]; compound 10 100 nM + paclitaxel 1.25 nM): 26
- number of colonies (MIA PaCa-2 cells [3]; compound 10 100 nM + paclitaxel 2.5 nM): 0
- number of colonies (MIA PaCa-2 cells [3]; compound 10 100 nM + paclitaxel 5 nM): 0
- number of colonies (MIA PaCa-2 cells [3]; compound 10 100 nM, paclitaxel 0 nM): 64
- number of colonies (MIA PaCa-2 cells [3]; compound 10 200 nM + paclitaxel 0.63 nM): 30
- number of colonies (MIA PaCa-2 cells [3]; compound 10 200 nM + paclitaxel 1.25 nM): 11
- number of colonies (MIA PaCa-2 cells [3]; compound 10 200 nM + paclitaxel 2.5 nM): 0
- number of colonies (MIA PaCa-2 cells [3]; compound 10 200 nM + paclitaxel 5 nM): 0
- number of colonies (MIA PaCa-2 cells [3]; compound 10 200 nM, paclitaxel 0 nM): 23
- number of colonies (MIA PaCa-2 cells [3]; compound 10 400 nM + paclitaxel 0.63 nM): 6
- number of colonies (MIA PaCa-2 cells [3]; compound 10 400 nM + paclitaxel 1.25 nM): 1
- number of colonies (MIA PaCa-2 cells [3]; compound 10 400 nM + paclitaxel 2.5 nM): 0
- number of colonies (MIA PaCa-2 cells [3]; compound 10 400 nM + paclitaxel 5 nM): 0
- number of colonies (MIA PaCa-2 cells [3]; compound 10 400 nM, paclitaxel 0 nM): 3
- interaction with paclitaxel (MIA PaCa-2 cells [3]; compound 10 at 3.13 to 200 nM with paclitaxel 2.5 to 5 nM): synergistic
- interaction with paclitaxel (MIA PaCa-2 cells [3]; compound 10 at 100 to 200 nM with 1.25 nM paclitaxel): synergistically tumoricidal
- tumor regression (MIA PaCa-2 cells [4]; compound 10 25 mg/kg/day plus paclitaxel 6.25 mg/kg/day intravenously once a day for 5 days from day 6, by 20 days after tumor cell implantation): all tumors in all mice had completely regressed

Compound: COC(=O)[C@H](CCSC)NC(=O)c1cc(C/C=C/C(N)CS)ccc1C(C)C (stereo partly shown)
- IC50 [1]: 22 nM
- IC50 [2]: 11 nM

Compound: COC(=O)C(CCSC)NC(=O)c1cc(CC=CC(N)CS)ccc1C (stereo not shown)
- IC50 (FTase): 300 nM
- IC50 (GGTase): 1600 nM

Compound: CSCCC(NC(=O)c1cc(CCCC(N)CS)ccc1C(C)C)C(=O)NCc1ccco1 (stereo not shown)
- IC50 (FTase): 67 nM
- IC50 (GGTase): 4430 nM

Compound: CC(=O)O[C@H]1C(=O)[C@@]2(C)[C@H]([C@H](OC(=O)c3ccccc3)[C@]3(O)C[C@H](OC(=O)[C@H](O)[C@@H](NC(=O)c4ccccc4)c4ccccc4)C(C)=C1C3(C)C)[C@]1(OC(C)=O)CO[C@@H]1C[C@@H]2O [Paclitaxel, paclitaxel, reference compound]
- number of colonies (MIA PaCa-2 cells [3]; paclitaxel 0.63 nM, compound 10 0 nM): 235
- number of colonies (MIA PaCa-2 cells [3]; paclitaxel 1.25 nM, compound 10 0 nM): 234
- number of colonies (MIA PaCa-2 cells [3]; paclitaxel 2.5 nM, compound 10 0 nM): 172
- number of colonies (MIA PaCa-2 cells [3]; paclitaxel 5 nM, compound 10 0 nM): 48
- tumor growth (MIA PaCa-2 cells [4]; [5]): inhibited tumor growth
- tumor regression (MIA PaCa-2 cells [4]; [5]): no tumor regression ever occurred

Compound: CSCC[C@H](NC(=O)c1cc(CCCC(N)CS)ccc1C(C)C)C(=O)NCc1ccco1 (stereo partly shown)
- IC50 [1]: 200 nM
- IC50 [2]: 300 nM

Compound: COC(=O)C(CCSC)NC(=O)c1cc(CCCC(N)CS)ccc1C(C)C (stereo not shown)
- IC50 (FTase): 73 nM
- IC50 (GGTase): 4440 nM

Compound: CSCCC(NC(=O)c1cc(CCCC(N)CS)ccc1C(C)C)C(=O)O (stereo not shown)
- IC50 (FTase): 8 nM
- IC50 (GGTase): 680 nM

Compound: CCc1ccc(CC=CC(N)CS)cc1C(=O)NC(CCSC)C(=O)O (stereo not shown)
- IC50 (FTase): 9 nM
- IC50 (GGTase): 420 nM

Compound: CSCCC(NC(=O)c1cc(CC=CC(N)CS)ccc1C)C(=O)O (stereo not shown)
- IC50 (FTase): 1 nM
- IC50 (GGTase): 2170 nM

Compound: CCc1ccc(C/C=C/C(N)CS)cc1C(=O)N[C@@H](CCSC)C(=O)OC (stereo partly shown)
- IC50 [1]: 56 nM
- IC50 [2]: 13 nM

Compound: CSCC[C@H](NC(=O)c1cc(CCCC(N)CS)ccc1C(C)C)C(=O)O (stereo partly shown)
- IC50 [1]: 390 nM
- IC50 [2]: 150 nM

Compound: COC(=O)C(CCSC)NC(=O)c1cc(CC=CC(N)CS)ccc1C(C)C (stereo not shown)
- IC50 (FTase): 80 nM
- IC50 (GGTase): 3190 nM

Compound: COC(=O)[C@H](CCSC)NC(=O)c1cc(CCCC(N)CS)ccc1C(C)C (stereo partly shown)
- IC50 [1]: 28 nM
- IC50 [2]: 19 nM

Compound: CSCC[C@H](NC(=O)c1cc(C/C=C/C(N)CS)ccc1C(C)C)C(=O)O (stereo partly shown)
- IC50 [1]: 430 nM
- IC50 [2]: 160 nM
